Assay results taken from article PMC10766536 (The Journal of Antibiotics, 2023).
Like-named read-outs stand apart in the source and are kept apart here.

Key:
S. aureus NRS384 [1] = experiment: S. aureus intracellular killing assay in THP-1 macrophages; format: cell-based; details: S. aureus NRS384 in THP-1 macrophages, 2 h, top conc. 1e−6 M
Description: (§1) THP-1 monocytic cell line (American Type Culture Collection) was grown in media (RPMI + 10% FBS + 1% Penicillin/Streptomycin), then seeded at a density of 1e5 cells/well in a 96 well plate and differentiated into macrophages for 3 days prior to infection using 200 nM PMA. Overnight culture of S. aureus or S. typhimurium was grown in RPMI or TSB, respectively, washed twice with PBS and resuspended at 1e7 cfu/ml in PBS. THP-1 were washed with warm media (RMPI without FBS) to remove the Penicillin/Streptomycin and then infected with the bacterial suspension at a multiplicity of infection of 10:1 (S. aureus:macrophages) or 5:1 (S. typhimurium:macrophages). Plates were centrifuged at 300 × g for 5 min to synchronize adhesion of the bacteria to the macrophages, then incubated at 37 °C for 2 h for S. aureus infection or 1 h for S. typhimurium infection. Free-floating bacteria were removed by washing twice with warm media and the remaining extracellular bacteria were killed by addition of media containing gentamicin (50 ug/ml). After 1 h, media was aspirated and the indicated compound was added to the S. aureus-infected macrophages in a dilution series starting at 1e−6 M, with 1:5 dilutions for 6 points (1.0 × 10^−6 M, 2.0 × 10^−7 M, 4.0 × 10^−8 M, 8.0 × 10^−9 M, 1.6 × 10^−9 M, and 3.2 × 10^−10 M) or to the to the S. typhimurium-infected macrophages in a dilution series starting at 1e−4 M, with 1:3 dilutions followed by 1:10 dilutions for 6 points (1.0 × 10^−4 M, 3.0 × 10^−5 M, 1.0 × 10^−5 M, 1.0 × 10^−6 M, 1.0 × 10^−7 M, and 1.0 × 10^−8 M). The compounds were added in media containing 50 µg/ml gentamicin to prevent extracellular growth of bacteria. After 2 h, plates were washed twice with warm RPMI without FBS, and 100 μl of THP-1 lysis buffer (0.1% Triton in PBS) was added to each well. Bacterial survival was enumerated by colony forming units (cfu) through serial dilution and plating onto tryptic soy agar (TSA, Teknova) plates.

[2] = system: Salmonella typhimurium AR-0031; experiment: S. typhimurium intracellular killing assay in THP-1 macrophages; format: cell-based; details: Salmonella typhimurium AR-0031 in THP-1 macrophages, top conc. 1e−4 M
Description: as §1

[3] = system: Salmonella typhimurium ATCC 14028; experiment: as above; format: cell-based; details: Salmonella typhimurium ATCC 14028 in THP-1 macrophages, top conc. 1e−4 M
Description: as §1

Sprague Dawley rats = experiment: 2-week IV once-a-day toxicity study with 2-week recovery in Sprague Dawley rats
Description: (§2) A subset from each dose group was maintained for 14 days after the last dose to evaluate delayed toxicity and/or recovery. All animals were observed twice daily for mortality and signs of pain or distress. Detailed clinical observations, body weight measurements and food consumption were conducted weekly; post dose observations (30 min post dose) were conducted daily or as required. Clinical pathology evaluations (hematology, coagulation parameters, and serum chemistry) were performed using samples collected on the day of scheduled sacrifice (main and recovery). At the end of the 14-day dosing period, and at the end of the 14-day recovery period, necropsies were performed on all animals, selected organs were weighed, and tissues were examined macroscopically and microscopically. Toxicokinetic parameters were evaluated on Day 1 and 14.

[4] = Toxicokinetics in 2-week IV rat toxicity study; format: in vivo
Description: as §2

[5] = rat, s9
[6] = system: Caco-2: endogenous transporters
[7] = target: MDCK-MDR1: overexpression of Pgp (Homo sapiens, UniProt P08183)
CYP 2B6 = CYP 2B6 (Homo sapiens, UniProt P20813)
CYP 3A4 [8] = target: CYP 3A4 (Homo sapiens, UniProt P08684); details: read-out: CYP inhibition IC50, ND = Not Detected
CYP 3A4 [9] = system: CYP 3A4
CYP 2C8 = CYP 2C8 (Homo sapiens, UniProt P10632); experiment: CYP inhibition; details: read-out: CYP inhibition IC50; CYP 2C8, substrate Amodiaquine; ND = Not Detected
CYP 2D6 = CYP 2D6 (Homo sapiens, UniProt P10635); experiment: CYP inhibition; details: read-out: CYP inhibition IC50; CYP 2D6, substrate Dextromethorphan; ND = Not Detected
[10] = system: Caco-2: endogenous transporters; experiment: Caco-2 permeability
[11] = S9 microsome stability, CD-1 mouse; details: text statement for rodent (mouse and rat) S9
[12] = Compound stability in CYP induction assay
S. aureus NRS384 [13] = experiment: S. aureus broth killing (growth inhibition) assay; details: S. aureus NRS384, TSB, 24 h, OD600
Description: (§3) To test the potency of rifamycin analogs of the disclosure in vitro, a broth growth inhibition assay was developed.

[14] = system: Salmonella typhimurium AR-0031; experiment: S. typhimurium broth killing (growth inhibition) assay; details: Salmonella typhimurium AR-0031, TSB, 24 h
Description: as §3

[15] = system: Salmonella typhimurium ATCC 14028; experiment: as above; details: Salmonella typhimurium ATCC 14028, TSB, 24 h
Description: as §3

[16] = combination with vancomycin, end of treatment
[17] = end of treatment period, compound alone
[18] = males, combination with vancomycin (1 + 110 mg/kg/day), end of treatment, considered vancomycin-related

MDCK-MDR1: overexpression of Pgp, sequence (P08183 whole entry): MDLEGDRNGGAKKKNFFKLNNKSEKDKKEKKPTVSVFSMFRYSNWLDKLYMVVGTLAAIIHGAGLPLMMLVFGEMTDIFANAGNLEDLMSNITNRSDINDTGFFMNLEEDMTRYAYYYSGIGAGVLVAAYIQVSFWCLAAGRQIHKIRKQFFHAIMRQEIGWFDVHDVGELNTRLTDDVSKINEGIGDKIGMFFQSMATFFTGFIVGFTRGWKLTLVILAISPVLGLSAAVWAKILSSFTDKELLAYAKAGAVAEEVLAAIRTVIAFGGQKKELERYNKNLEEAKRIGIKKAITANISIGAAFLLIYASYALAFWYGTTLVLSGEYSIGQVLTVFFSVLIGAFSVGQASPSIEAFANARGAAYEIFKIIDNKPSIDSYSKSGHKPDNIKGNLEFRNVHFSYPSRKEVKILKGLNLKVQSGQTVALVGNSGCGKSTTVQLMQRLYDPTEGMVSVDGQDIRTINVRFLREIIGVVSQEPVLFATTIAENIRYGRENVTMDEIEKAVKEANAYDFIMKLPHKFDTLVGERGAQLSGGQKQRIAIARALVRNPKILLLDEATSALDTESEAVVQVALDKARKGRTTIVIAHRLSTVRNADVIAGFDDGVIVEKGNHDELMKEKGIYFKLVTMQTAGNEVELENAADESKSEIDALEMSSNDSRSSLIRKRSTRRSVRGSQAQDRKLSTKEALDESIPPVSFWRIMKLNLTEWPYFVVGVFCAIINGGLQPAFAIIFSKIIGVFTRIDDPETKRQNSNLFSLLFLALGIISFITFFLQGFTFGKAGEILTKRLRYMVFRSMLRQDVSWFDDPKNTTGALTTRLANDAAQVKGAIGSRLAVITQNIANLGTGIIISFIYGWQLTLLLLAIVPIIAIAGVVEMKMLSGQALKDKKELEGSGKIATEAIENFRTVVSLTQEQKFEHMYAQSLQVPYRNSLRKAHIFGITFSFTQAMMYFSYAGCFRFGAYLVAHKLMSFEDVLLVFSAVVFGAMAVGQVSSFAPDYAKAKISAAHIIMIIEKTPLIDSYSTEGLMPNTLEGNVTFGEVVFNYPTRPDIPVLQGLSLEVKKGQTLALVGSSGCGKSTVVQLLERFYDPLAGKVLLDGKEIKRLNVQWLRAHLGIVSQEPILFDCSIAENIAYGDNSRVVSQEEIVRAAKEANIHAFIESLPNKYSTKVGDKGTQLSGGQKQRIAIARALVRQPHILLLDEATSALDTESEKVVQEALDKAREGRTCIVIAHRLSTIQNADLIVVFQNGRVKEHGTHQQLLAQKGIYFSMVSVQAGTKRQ
CYP 3A4 (Homo sapiens, UniProt P08684), sequence (P08684 whole entry): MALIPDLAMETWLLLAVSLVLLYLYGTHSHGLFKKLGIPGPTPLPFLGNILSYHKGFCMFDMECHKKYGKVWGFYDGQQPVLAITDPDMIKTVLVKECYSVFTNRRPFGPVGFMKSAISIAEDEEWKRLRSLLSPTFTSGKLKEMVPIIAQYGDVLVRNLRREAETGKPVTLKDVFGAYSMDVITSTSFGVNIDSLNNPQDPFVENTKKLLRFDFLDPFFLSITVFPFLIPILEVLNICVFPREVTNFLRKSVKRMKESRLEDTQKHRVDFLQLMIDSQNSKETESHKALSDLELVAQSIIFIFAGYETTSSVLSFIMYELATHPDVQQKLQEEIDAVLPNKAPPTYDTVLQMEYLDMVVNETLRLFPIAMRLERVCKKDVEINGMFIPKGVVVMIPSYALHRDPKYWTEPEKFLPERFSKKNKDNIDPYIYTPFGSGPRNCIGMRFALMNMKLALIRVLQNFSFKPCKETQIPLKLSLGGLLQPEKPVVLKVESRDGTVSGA
CYP 2B6, sequence (P20813 whole entry): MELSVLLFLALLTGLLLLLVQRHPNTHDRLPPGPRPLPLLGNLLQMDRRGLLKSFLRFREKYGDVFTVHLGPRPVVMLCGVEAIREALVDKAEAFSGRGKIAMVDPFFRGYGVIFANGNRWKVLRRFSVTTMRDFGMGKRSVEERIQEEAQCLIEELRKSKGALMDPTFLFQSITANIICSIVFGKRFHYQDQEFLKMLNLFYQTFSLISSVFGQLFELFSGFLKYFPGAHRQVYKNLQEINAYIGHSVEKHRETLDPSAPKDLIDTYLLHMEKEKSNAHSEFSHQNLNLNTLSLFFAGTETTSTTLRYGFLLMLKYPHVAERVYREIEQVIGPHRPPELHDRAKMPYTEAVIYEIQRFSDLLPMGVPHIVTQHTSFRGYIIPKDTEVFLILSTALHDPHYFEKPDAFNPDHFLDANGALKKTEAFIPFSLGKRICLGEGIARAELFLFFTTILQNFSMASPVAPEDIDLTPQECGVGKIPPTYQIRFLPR
CYP 2D6, sequence (P10635 whole entry): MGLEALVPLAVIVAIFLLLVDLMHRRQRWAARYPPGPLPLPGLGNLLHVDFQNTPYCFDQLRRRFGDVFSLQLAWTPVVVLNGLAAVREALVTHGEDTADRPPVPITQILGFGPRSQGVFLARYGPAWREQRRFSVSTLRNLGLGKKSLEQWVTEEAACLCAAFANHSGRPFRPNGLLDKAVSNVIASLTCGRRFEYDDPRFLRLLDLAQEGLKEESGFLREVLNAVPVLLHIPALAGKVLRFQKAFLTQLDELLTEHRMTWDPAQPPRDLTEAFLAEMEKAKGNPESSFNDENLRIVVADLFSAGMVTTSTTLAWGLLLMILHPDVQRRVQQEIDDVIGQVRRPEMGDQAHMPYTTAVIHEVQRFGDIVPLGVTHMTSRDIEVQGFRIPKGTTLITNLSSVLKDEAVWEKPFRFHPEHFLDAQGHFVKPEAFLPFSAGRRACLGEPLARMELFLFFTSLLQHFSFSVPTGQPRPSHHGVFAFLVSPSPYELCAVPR
CYP 2C8, sequence (P10632 whole entry): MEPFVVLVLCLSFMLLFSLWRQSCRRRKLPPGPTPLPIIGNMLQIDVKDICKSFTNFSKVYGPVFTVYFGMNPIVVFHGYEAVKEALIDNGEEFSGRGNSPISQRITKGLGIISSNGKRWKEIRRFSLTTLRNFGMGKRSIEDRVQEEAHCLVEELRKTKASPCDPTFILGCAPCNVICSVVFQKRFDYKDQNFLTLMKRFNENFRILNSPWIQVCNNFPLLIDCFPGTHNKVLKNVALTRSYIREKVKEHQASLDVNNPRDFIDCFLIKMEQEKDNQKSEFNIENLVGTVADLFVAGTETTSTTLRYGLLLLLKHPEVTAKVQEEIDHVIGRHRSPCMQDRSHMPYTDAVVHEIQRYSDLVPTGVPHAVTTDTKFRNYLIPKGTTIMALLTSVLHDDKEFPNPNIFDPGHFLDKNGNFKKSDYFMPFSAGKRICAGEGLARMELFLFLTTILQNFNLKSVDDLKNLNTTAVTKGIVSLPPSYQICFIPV

SMILES: COC1C=COC2(C)Oc3c(C)c(O)c4c(=O)c(c5oc6cc(OCCN(C)C)ccc6nc-5c4c3C2=O)NC(=O)C(C)=CC=CC(C)C(O)C(C)C(O)C(C)C(OC(C)=O)C1C (centres unmarked) [Compound 4]
- Intracellular MIC (S. aureus NRS384 [1]): 40 nM
- Intracellular MIC [2]: 30 µM
- Intracellular MIC [3]: 100 µM
- albumin concentration (Sprague Dawley rats; [16]): minimal decrease
- glucose concentration (Sprague Dawley rats; [16]): minimal increase
- urea nitrogen (Sprague Dawley rats; [16]): minimal increase
- dose with apparent minimal increase in alkaline phosphatase in males (Sprague Dawley rats; end of recovery period): ≥ 1 mg/kg/day
- dose with increase in glucose (Sprague Dawley rats; end of recovery period): ≥ 0.1 mg/kg/day
- dose with minimal to mild decreases in globulin in males (Sprague Dawley rats; end of recovery period): ≥ 0.1 mg/kg/day
- dose with minimal increases in phosphorus (Sprague Dawley rats; end of treatment period): ≥ 0.1 mg/kg/day
- dose with minimal increases in reticulocyte counts (Sprague Dawley rats; end of treatment period): ≥ 0.1 mg/kg/day
- dose with minimal decrease in albumin concentration (Sprague Dawley rats; [17]): 10 mg/kg/day
- dose with minimal increase in glucose concentration (Sprague Dawley rats; [17]): 1 mg/kg/day
- neutrophils counts (Sprague Dawley rats; [18]): mild decreases
- platelet counts (Sprague Dawley rats; [18]): minimal increase
- red cell mass parameters (red blood cells, hemoglobin, hematocrit) (Sprague Dawley rats; [18]): minimal decreases
- calcium (Sprague Dawley rats; males, combination with vancomycin, after 14-day recovery): minimal decrease
- globulin (Sprague Dawley rats; males, combination with vancomycin, end of recovery period): minimal to mild decreases
- fibrinogen (Sprague Dawley rats; males, combination with vancomycin, end of treatment, attributed to vancomycin): minimal increases
- tolerability (Sprague Dawley rats; rat, IV QD 14 days, 0.1-10 mg/kg/day): well-tolerated
- body weight, body weight gains, food consumption changes (Sprague Dawley rats; rat, IV QD 14 days, alone or in combination with vancomycin): no body weight, body weight gains, or food consumption changes
- no-observed-adverse-effect level (NOAEL) (Sprague Dawley rats; rat, IV QD 14 days, highest dose administered): 10 mg/kg/day
- accumulation following 14 daily doses ([4]; rat IV QD): No apparent accumulation
- sex difference in exposure ([4]; rat IV QD 1 mg/kg/day, males vs females): No sex difference
- dose proportionality of Cmax and AUCtau ([4]; rat IV QD 0.1-10 mg/kg/day): approximately dose-proportional
- AUC or Cmax when coadministered with vancomycin ([4]; rat IV, 1 + 110 mg/kg/day, compound 5: except Day 1, slightly greater Cmax and AUC): not impacted
- T1/2 [5]: >120 min
- Mean A-B % Recovery [6]: 52.70%
- Mean B-A % Recovery [6]: 66.30%
- Mean Papp A-B [6]: 2.59 10^−6 cm/s
- Mean Papp B-A [6]: 10.3 10^−6 cm/s
- Mean A-B % Recovery [7]: 89.10%
- Mean B-A % Recovery [7]: 54.80%
- Mean Papp A-B [7]: 1.38 10^−6 cm/s
- Mean Papp B-A [7]: 18.9 10^−6 cm/s
- IC50 (CYP 2B6): 11.6 µM
- IC50 (CYP 3A4 [8]; CYP 3A4, substrate Midazolam): 8.05 µM
- IC50 (CYP 3A4 [8]; CYP 3A4, substrate Testosterone): 5.66 µM
- Fold Induction (Enzyme Activity) (CYP 3A4 [9]): 0.128
- IC50 (CYP 2C8): 6.76 µM
- IC50 (CYP 2D6): 11.7 µM
- Mean (B-A/A-B) Efflux Ratio [10]: 3.97
- half-lives, rodent S9 microsomal stability [11]: greater than 120 min
- Average % Stability [12]: 75.8%
- Broth MIC (S. aureus NRS384 [13]): 3.91 nM
- Broth MIC [14]: 1000 nM
- Broth MIC [15]: 4 µM
